Data on 18 compounds can be found in patent publication US20190077795A1, “ARGININE […] INHIBITORS AND USES THEREOF” (Epizyme, Inc., priority 2014, published 2019).

The subject of assay [1] is mono-methyl arginine in RKO cells. Kind of assay: RKO Methylation Assay, In Cell Western (ICW). It counts as cell-based. Conditions: 72 hours. The source says:
RKO adherent cells were purchased from ATCC (American Type Culture Collection), Manassas, Va., USA. DMEM/Glutamax medium, penicillin-streptomycin, heat inactivated fetal bovine serum, 0.05% trypsin and D-PBS were purchased from Life Technologies, Grand Island, N.Y., USA. Odyssey blocking buffer, 800CW goat anti-rabbit IgG (H+L) antibody, and Licor Odyssey infrared scanner were purchased from Licor Biosciences, Lincoln, Nebr., USA. Mono-methyl arginine antibody was purchased from Cell Signaling Technology, Danvers, Mass., USA. Methanol was purchased from VWR, Franklin, Mass., USA. 10% Tween 20 was purchased from KPL, Inc., Gaithersburg, Md., USA. DRAQ5 was purchased from Biostatus Limited, Leicestershire, UK.
RKO adherent cells were maintained in growth medium (DMEM/Glutamax medium supplemented with 10% v/v heat inactivated fetal bovine serum and 100 units/mL penicillin-streptomycin) and cultured at 37° C. under 5% CO2.
Cell treatment, In Cell Western (ICW) for detection of mono-methyl arginine and DNA content.
Compound (100 nL) from a 96-well source plate was added directly to 384 well cell plate. Plates were incubated at 37° C., 5% CO2 for 72 hours. After three days of incubation, plates were brought to room temperature outside of the incubator for ten minutes and blotted on paper towels to remove cell media. 50 μL of ice cold 100% methanol was added directly to each well and incubated for 30 min at room temperature. After 30 min, plates were transferred to a Biotek EL406 plate washer and washed 2 times with 100 μL per well of wash buffer (1×PBS). Next 60 μL per well of Odyssey blocking buffer (Odyssey Buffer with 0.1% Tween 20 (v/v)) were added to each plate and incubated 1 hour at room temperature. Blocking buffer was removed and 20 μL per well of primary antibody was added (mono-methyl arginine diluted 1:200 in Odyssey buffer with 0.1% Tween 20 (v/v)) and plates were incubated overnight (16 hours) at 4° C. Plates were washed 5 times with 100 μL per well of wash buffer. […] The plates were washed 5 times with 100 μL per well wash buffer then 2 times with 100 μL per well of water. Plates were allowed to dry at room temperature then imaged on the Licor Odyssey machine which measures integrated intensity at 700 nm and 800 nm wavelengths. Both 700 and 800 channels were scanned.
First, the ratio for each well was determined by:
Each plate included fourteen control wells of DMSO only treatment (minimum activation) as well as fourteen control wells for maximum activation treated with 20 μM of a reference compound. The average of the ratio values for each control type was calculated and used to determine the percent activation for each test well in the plate. Reference compound was serially diluted three-fold in DMSO for a total of nine test concentrations, beginning at 20 μM. Percent activation was determined and EC30 curves were generated using triplicate wells per concentration of compound.

The target of a further assay is human PRMT8 (Homo sapiens, UniProt Q9NR22). Kind of assay: PRMT8 Biochemical Assay. The settings on record: peptide substrate, 3H-SAM Flashplate assay.
Another assay concerns the target T1, human PRMT1 (Homo sapiens, UniProt Q99873).
T1 construct: GST-tagged PRMT1; made in house; host or cells: High Five insect cells (baculovirus, pFastBac1)
Kind of assay: PRMT1 Biochemical Assay. The settings on record: peptide substrate, 3H-SAM Flashplate assay. The source says: S-adenosylmethionine (SAM), S-adenosylhomocysteine (SAH), bicine, Tween20, dimethylsulfoxide (DMSO), bovine skin gelatin (BSG), and Tris(2-carboxyethyl)phosphine hydrochloride solution (TCEP) were purchased from Sigma-Aldrich at the highest level of purity possible. ^3H-SAM was purchase from American Radiolabeled Chemicals with a specific activity of 80 Ci/mmol. 384-well streptavidin Flashplates were purchased from PerkinElmer.
Recombinant baculovirus were generated according to Bac-to-Bac kit instructions (Life Technologies). […] Infections were carried out at 27° C. for 48 hours, harvested by centrifugation, and stored at −80° C. for purification.
GST-tagged PRMT1 was eluted with 50 mM Tris, 2 mM glutathione, pH 7.8, dialysed in buffer A and concentrated to 1 mg/mL.
General Procedure for PRMT1 Enzyme Assays on Peptide Substrates.
(§1) The assays were all performed in a buffer consisting of 20 mM Bicine (pH=7.6), 1 mM TCEP, 0.005% BSG, and 0.002% Tween 20, prepared on the day of use. […] DMSO (1 ul) was added to Columns 11, 12, 23, 24, rows A-H for the maximum signal control and 1 ul of SAH, a known product and inhibitor of PRMT1, was added to columns 11, 12, 23, 24, rows I-P for the minimum signal control. A cocktail (40 ul) containing the PRMT1 enzyme was added by Multidrop Combi (Thermo-Fisher). The compounds were allowed to incubate with PRMT1 for 30 min at room temperature, then a cocktail (10 ul) containing SAM and peptide was added to initiate the reaction (final volume=51 ul). […] The assays were stopped by the addition of non-radiolabeled SAM (10 ul) to a final concentration of 300 uM, which dilutes the ^3H-SAM to a level where its incorporation into the peptide substrate is no longer detectable. 50 ul of the reaction in the 384-well polypropylene plate was then transferred to a 384-well Flashplate and the biotinylated peptides were allowed to bind to the streptavidin surface for at least 1 hour before being washed once with 0.1% Tween20 in a Biotek ELx405 plate washer. The plates were then read in a PerkinElmer TopCount plate reader to measure the quantity of ^3H-labeled peptide bound to the Flashplate surface, measured as disintegrations per minute (dpm) or alternatively, referred to as counts per minute (cpm).
(§2) Where dpm=disintegrations per minute, cmpd=signal in assay well, and min and max are the respective minimum and maximum signal controls.
(§3) Where top and bottom are the normally allowed to float, but may be fixed at 100 or 0 respectively in a 3-parameter fit. The Hill Coefficient normally allowed to float but may also be fixed at 1 in a 3-parameter fit. Y is the % inhibition and X is the compound concentration.

Another assay has as its target T2, human PRMT6 (Homo sapiens, UniProt Q96LA8).
T2 construct: Flag-PRMT6-His; made in house; host or cells: HEK 293F cells (BacMam baculovirus, pFastBacMam)
Kind of assay: PRMT6 Biochemical Assay.
Description: S-adenosylmethionine (SAM), S-adenosylhomocysteine (SAH), bicine, Tween20, dimethylsulfoxide (DMSO), bovine skin gelatin (BSG), sodium butyrate and Tris(2-carboxyethyl)phosphine hydrochloride solution (TCEP) were purchased from Sigma-Aldrich at the highest level of purity possible. ^3H-SAM was purchase from American Radiolabeled Chemicals with a specific activity of 80 Ci/mmol. 384-well streptavidin Flashplates were purchased from PerkinElmer.
Peptide representative of human histone H4 residues 36-50 was synthesized with an N-terminal linker-affinity tag motif and a C-terminal amide cap by 21st Century Biochemicals.
The amplified gene was subcloned into pFastBacMam (Viva Biotech).
Recombinant baculovirus were generated according to Bac-to-Bac kit instructions (Life Technologies). […] Infections were carried out at 37° C. for 48 hours, harvested by centrifugation, and stored at −80° C. for purification.
Column was washed with 20 mM imidazole in the same buffer and Flag-PRMT6-His was eluted with 150 mM imidazole. Pooled fractions were dialysed against buffer Ni-A and further purified by anti-flag M2 affinity chromatography. Flag-PRMT6-His was eluted with 200 ug/ml FLAG peptide in the same buffer. Pooled fractions were dialysed in 20 mM Tris, 150 mM NaCl, 10% glycerol and 5 mM β-mercaptoethanol, pH 7.8.
General Procedure for PRMT6 Enzyme Assays on Peptide Substrates.
as §1, with “PRMT6,” for “PRMT1,”, “PRMT6” for “PRMT1”, “400” for “300”
as §2, §3

Setting [2] is: peptide substrate, 3H-SAM Flashplate assay, read-out: PRMT6 IC50.

Where two headings read alike, the source gives them in different places. A value given as a limit tells only on which side of the number the result lay.

Chain of human PRMT8 (Q9NR22 whole entry): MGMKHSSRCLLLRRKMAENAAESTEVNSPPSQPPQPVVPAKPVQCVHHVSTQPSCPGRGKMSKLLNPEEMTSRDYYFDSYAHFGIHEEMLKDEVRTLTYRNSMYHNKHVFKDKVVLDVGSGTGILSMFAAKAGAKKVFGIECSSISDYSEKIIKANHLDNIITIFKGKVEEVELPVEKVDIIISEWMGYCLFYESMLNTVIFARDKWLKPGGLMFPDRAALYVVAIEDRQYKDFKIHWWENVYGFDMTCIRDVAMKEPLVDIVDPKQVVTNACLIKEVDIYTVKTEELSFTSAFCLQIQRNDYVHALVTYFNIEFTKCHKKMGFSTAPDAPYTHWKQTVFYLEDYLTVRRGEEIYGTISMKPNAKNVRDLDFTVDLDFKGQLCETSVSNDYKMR
T2 sequence (Q96LA8 with tags, fused parts or gaps): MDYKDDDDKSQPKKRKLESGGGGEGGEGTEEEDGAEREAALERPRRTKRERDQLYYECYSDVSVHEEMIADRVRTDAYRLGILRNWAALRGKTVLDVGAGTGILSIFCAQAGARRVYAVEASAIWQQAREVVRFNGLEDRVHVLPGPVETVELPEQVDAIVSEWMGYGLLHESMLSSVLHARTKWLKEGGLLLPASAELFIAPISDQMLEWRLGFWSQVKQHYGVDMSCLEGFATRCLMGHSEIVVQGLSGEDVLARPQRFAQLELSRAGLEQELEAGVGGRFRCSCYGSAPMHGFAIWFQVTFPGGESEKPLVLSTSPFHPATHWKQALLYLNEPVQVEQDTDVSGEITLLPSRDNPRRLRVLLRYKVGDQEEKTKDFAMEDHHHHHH
T1 sequence (Q99873 with tags, fused parts or gaps): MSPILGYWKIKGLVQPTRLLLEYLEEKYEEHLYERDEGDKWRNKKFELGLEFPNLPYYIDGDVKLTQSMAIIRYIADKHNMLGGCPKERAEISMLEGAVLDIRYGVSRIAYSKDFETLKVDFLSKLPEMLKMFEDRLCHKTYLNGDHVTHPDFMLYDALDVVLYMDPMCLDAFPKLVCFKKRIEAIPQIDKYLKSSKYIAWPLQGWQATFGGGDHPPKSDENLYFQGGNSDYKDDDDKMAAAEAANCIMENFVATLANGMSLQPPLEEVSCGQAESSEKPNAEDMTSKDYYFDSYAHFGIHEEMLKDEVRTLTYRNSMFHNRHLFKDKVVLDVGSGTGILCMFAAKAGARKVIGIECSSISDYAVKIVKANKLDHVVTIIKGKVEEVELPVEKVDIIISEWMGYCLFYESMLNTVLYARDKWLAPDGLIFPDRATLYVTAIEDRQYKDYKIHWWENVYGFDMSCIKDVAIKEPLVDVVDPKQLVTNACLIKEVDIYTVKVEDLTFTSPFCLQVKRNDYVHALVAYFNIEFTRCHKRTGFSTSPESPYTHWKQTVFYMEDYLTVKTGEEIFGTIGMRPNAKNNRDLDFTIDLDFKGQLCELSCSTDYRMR

For the compound `CNCCN(C)Cc1c[nH]nc1-c1ccc(OC2CC(OCCC3CCCCC3)C2)cc1` (stereo not shown) [Compound 150], the “ICW EC30” value in assay [1] was over 20000 nM.

Broadly, the IC50 is the point on the concentration scale where inhibition reaches its midpoint. Regarding `CNCCN(C)Cc1c[nH]nc1-c1ccc(NC(C)c2ccncc2)nc1` (stereo not shown) [Compound 67], the IC50 stood at 0.062 µM against human PRMT8 (PRMT8 IC50 (uM)), 0.0147 µM at human PRMT1 (read-out: PRMT1 IC50) and 0.031 µM on human PRMT6 (setting [2]).

Regarding `CNCCN(C)Cc1c[nH]nc1-c1ccc(OC2CC(OCCC3CCCCC3)C2)cc1` (stereo not shown) [Compound 100], the IC50 against human PRMT8 (PRMT8 IC50 (uM)) worked out at 0.0599 µM; on human PRMT1 (read-out: PRMT1 IC50), 0.03 µM; at human PRMT6 (setting [2]) it was 0.00465 µM.

Regarding `CNCCN(C)Cc1c[nH]nc1-c1cc(OC(CO)CC(C)C)cc(C(F)(F)F)c1` (stereo not shown) [Compound 73], the “ICW EC30” value in assay [1] stood at 2102 nM. For the same compound, the IC50 turned out to be 0.0438 µM on human PRMT8 (read-out: PRMT8 IC50) and 1.9 µM at human PRMT6 (read-out: PRMT6 IC50).

Take `CNCCN(C)Cc1c[nH]nc1-c1ccc(NC(C)c2cccnc2)nc1` (stereo not shown) [Compound 52]: the IC50 stood at 0.026 µM on human PRMT8 (PRMT8 IC50 (uM)), 0.0107 µM on human PRMT1 (read-out: PRMT1 IC50) and 0.0206 µM on human PRMT6 (setting [2]).

Turning to `CNCCN(C)Cc1cn[nH]c1-c1ccc(OC2CC(OCCC3CCOCC3)C2)cc1` (stereo not shown) [Compound 145], the IC50 came to 0.223 µM on human PRMT8 (PRMT8 IC50 (uM)); 0.119 µM on human PRMT1 (read-out: PRMT1 IC50); 0.0101 µM against human PRMT6 (PRMT6 IC50 (uM), peptide substrate, 3H-SAM Flashplate assay).

Turning to `CNCCN(C)Cc1c[nH]nc1-c1ccc(N(C)CC2CCOCC2)nc1` [Compound 120], the “ICW EC30” value in assay [1] stood at 4389 nM. Also, the IC50 at human PRMT1 (read-out: PRMT1 IC50) was 0.0417 µM; on human PRMT6 (setting [2]) it was 0.272 µM.

For `CNCCN(C)Cc1c[nH]nc1-c1cc(F)c(OC(CO)CO)c(C(F)(F)F)c1` [Compound 107], the IC50 against human PRMT8 (PRMT8 IC50 (uM)) stood at 0.085 µM; at human PRMT1 (read-out: PRMT1 IC50) it was 0.0355 µM; on human PRMT6 (setting [2]) it was 0.066 µM.

As for `CNCCN(C)Cc1c[nH]nc1-c1ccc(OC2CC(OCC(C)C)C2)cc1` (stereo not shown) [Compound 131], the “ICW EC30” value in assay [1] is 14756 nM. For the same compound, the results for the IC50 at human PRMT1 (read-out: PRMT1 IC50) and on human PRMT6 (setting [2]) were 0.0492 µM and 0.0182 µM, respectively.

As for `CNCCN(C)Cc1c[nH]nc1-c1cc(OC2CCCC2)cc(C(F)(F)F)c1` [Compound 76], the IC50 at human PRMT8 (PRMT8 IC50 (uM)) came out at 0.0871 µM; on human PRMT1 (read-out: PRMT1 IC50), 0.0163 µM; at human PRMT6 (setting [2]), 0.254 µM.

Take `CNCCN(C)Cc1c[nH]nc1-c1cc(OCCCC(C)C)cc(C(F)(F)F)c1` [Compound 13]: the IC50 came to 0.0261 µM at human PRMT8 (PRMT8 IC50 (uM)), 0.00531 µM at human PRMT1 (read-out: PRMT1 IC50) and 0.285 µM at human PRMT6 (setting [2]).

As for `COCCCOc1cc(-c2n[nH]cc2CN(C)CCN)cc(C(F)(F)F)c1Cl` [Compound 115], the IC50 is 0.563 µM against human PRMT8 (PRMT8 IC50 (uM)), 0.0391 µM at human PRMT1 (read-out: PRMT1 IC50) and 1.82 µM at human PRMT6 (setting [2]).

On to `CNCCN(C)Cc1c[nH]nc1-c1ccc(O[C@H]2C[C@H](OCCC3CCOCC3)C2)cc1` [Compound 155, N1,N2-dimethyl-N1-((3-(4-(3-(2-(tetrahydro-2H-pyran-4-yl)ethoxy)cyclobutoxy)phenyl)-1H-pyrazol-4-yl)methyl)ethane-1,2-diamine bis(2,2,2-trifluoroacetate)], for which the results for the IC50 at human PRMT8 (read-out: PRMT8 IC50), on human PRMT1 (read-out: PRMT1 IC50) and at human PRMT6 (setting [2]) were 0.223 µM, 0.119 µM and 0.0101 µM, respectively.

As for `CNCCN(C)Cc1c[nH]nc1-c1ccc(CC(C)C)c(C(F)(F)F)c1` [Compound 50], the IC50 came to 0.0245 µM at human PRMT8 (PRMT8 IC50 (uM)), 0.0105 µM against human PRMT1 (PRMT1 IC50 (uM)) and 0.0677 µM at human PRMT6 (setting [2]).

Consider `CNCCN(C)Cc1c[nH]nc1-c1ccc(OCCOc2ccnnc2)cc1` [Compound 112], for which, in assay [1], the “ICW EC30” value was 3994 nM. The IC50 at human PRMT1 (read-out: PRMT1 IC50) was 0.0373 µM; on human PRMT6 (setting [2]), 0.0278 µM.

`CNCCN(C)Cc1c[nH]nc1-c1ccc(OCCOc2ccc(OCCC3CCOCC3)cc2)cc1` [Compound 55]: the IC50 at human PRMT8 (PRMT8 IC50 (uM)) amounted to 0.023 µM; at human PRMT1 (read-out: PRMT1 IC50) it was 0.0113 µM; at human PRMT6 (setting [2]), 0.0186 µM.

On to `CNCCN(C)Cc1ccnn1[C@H]1CC[C@@H](COC)CC1` [Compound 110], for which, in assay [1], the “ICW EC30” value stood at 1204 nM. Moreover, the IC50 turned out to be 0.0364 µM on human PRMT1 (read-out: PRMT1 IC50) and 0.143 µM at human PRMT6 (setting [2]).

For the compound `CCN(Cc1ccncc1)c1ccc(-c2n[nH]cc2CN(C)CCNC)cn1` [Compound 113], the IC50 against human PRMT8 (PRMT8 IC50 (uM)) was determined as 0.243 µM; on human PRMT1 (read-out: PRMT1 IC50) it was 0.0374 µM; at human PRMT6 (setting [2]), 0.105 µM.
